Data: PMC7116137 (Molecular pharmacology, 2020)

How the values were obtained:
[1] = biological target: complex of dopamine D1-receptor and wild-type A1R (Homo sapiens, UniProt P21728+P30542); assay: BRET between D1R-NLuc and eYFP-tagged A1-receptor in HEK293 cells; assay type: cell-based; settings: incubation with ligand 10 μM, response estimated at saturation
wild-type A1R = biological target: T1, wild-type A1R (Homo sapiens, UniProt P30542); assay: [35S]GTPγS binding to membranes of HEK293 cells; assay type: biochemical; settings: agonist-stimulated, curve fit; wt A1R
T1 sequence (P30542 1-326): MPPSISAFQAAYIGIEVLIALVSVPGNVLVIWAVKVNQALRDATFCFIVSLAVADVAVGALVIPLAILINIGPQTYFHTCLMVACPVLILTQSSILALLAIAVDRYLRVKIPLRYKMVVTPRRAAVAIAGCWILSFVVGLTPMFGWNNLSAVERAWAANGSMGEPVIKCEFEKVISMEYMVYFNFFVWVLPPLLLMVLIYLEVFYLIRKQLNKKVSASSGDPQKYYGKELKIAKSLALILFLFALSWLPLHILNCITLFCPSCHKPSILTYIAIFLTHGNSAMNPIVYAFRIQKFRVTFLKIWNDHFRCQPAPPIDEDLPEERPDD

Sequence of complex of dopamine D1-receptor and wild-type A1R (P21728 whole entry, one chain of several): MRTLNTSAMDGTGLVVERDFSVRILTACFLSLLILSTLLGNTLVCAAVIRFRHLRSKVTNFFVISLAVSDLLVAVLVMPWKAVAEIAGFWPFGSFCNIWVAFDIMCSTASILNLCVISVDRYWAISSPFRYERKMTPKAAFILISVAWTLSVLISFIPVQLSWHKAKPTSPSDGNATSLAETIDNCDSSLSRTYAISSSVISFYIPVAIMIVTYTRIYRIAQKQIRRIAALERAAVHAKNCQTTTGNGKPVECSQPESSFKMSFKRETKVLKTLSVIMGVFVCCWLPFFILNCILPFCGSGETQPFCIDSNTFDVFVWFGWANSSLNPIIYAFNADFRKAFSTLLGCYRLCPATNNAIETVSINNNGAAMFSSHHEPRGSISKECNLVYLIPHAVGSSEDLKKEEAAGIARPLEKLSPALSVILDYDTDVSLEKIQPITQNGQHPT

## OC[C@H]1O[C@@H](n2cnc3c(NC4CCCC4)ncnc32)[C@H](O)[C@@H]1O [CPA, N6-cyclopentyladenosine]
[1]
  Maximum BRET signal: 218 ± 64 milli BRET
wild-type A1R
  maximal [35S]GTPγS binding (95% confidence interval): 91.5 to 101.3 fmol/mg
